The supplement of paper PMC13380429

Tests used:
Settings in all cases: 72 h
U2OS [1] = test: relative viability EC50 (midpoint between 100% and the lowest measured viability); higher = less toxic
Vero E6 [2] = test: as above
HepG2 [3] = test: as above
Calu-3 [4] = test: as above
U2OS [5] = test: cell viability relative to DMSO; higher = less toxic
Caco-2 [6] = test: as above
Vero E6 [7] = test: as above
HepG2 [8] = test: as above
Calu-3 [9] = test: as above
U2OS [10] = test: drug sensitivity score (DSS) for viability; higher = more toxic; extreme values may be limits of the assay
Caco-2 [11] = test: as above
Vero E6 [12] = test: as above
HepG2 [13] = test: as above
Calu-3 [14] = test: as above

Row | Compound | relative viability EC50 (U2OS [1]) [nM] | relative viability EC50 (Vero E6 [2]) [µM] | relative viability EC50 (HepG2 [3]) [nM] | relative viability EC50 (Calu-3 [4]) [µM] | cell viability (U2OS [5]; 1 nM) [%] | cell viability (U2OS [5]; 10 nM) [%] | cell viability (U2OS [5]; 100 nM) [%] | cell viability (U2OS [5]; 1000 nM) [%] | cell viability (U2OS [5]; 10000 nM) [%] | cell viability (Caco-2 [6]; 1 nM) [%] | cell viability (Caco-2 [6]; 10 nM) [%] | cell viability (Caco-2 [6]; 100 nM) [%] | cell viability (Caco-2 [6]; 1000 nM) [%] | cell viability (Caco-2 [6]; 10000 nM) [%] | cell viability (Vero E6 [7]; 1 nM) [%] | cell viability (Vero E6 [7]; 10 nM) [%] | cell viability (Vero E6 [7]; 100 nM) [%] | cell viability (Vero E6 [7]; 1000 nM) [%] | cell viability (Vero E6 [7]; 10000 nM) [%] | cell viability (HepG2 [8]; 1 nM) [%] | cell viability (HepG2 [8]; 10 nM) [%] | cell viability (HepG2 [8]; 100 nM) [%] | cell viability (HepG2 [8]; 1000 nM) [%] | cell viability (HepG2 [8]; 10000 nM) [%] | cell viability (Calu-3 [9]; 1 nM) [%] | cell viability (Calu-3 [9]; 10 nM) [%] | cell viability (Calu-3 [9]; 100 nM) [%] | cell viability (Calu-3 [9]; 1000 nM) [%] | cell viability (Calu-3 [9]; 10000 nM) [%] | drug sensitivity score (U2OS [10]) | drug sensitivity score (Caco-2 [11]) | drug sensitivity score (Vero E6 [12]) | drug sensitivity score (HepG2 [13]) | drug sensitivity score (Calu-3 [14])
1 | CC(C)=CCC/C(C)=C/CNCCNC1C2CC3CC(C2)CC1C3 (stereo unspecified) [SQ-109] | > 10000 | > 10 | > 10000 | > 10 | 102 | 104 | 99.5 | 103 | 93.6 | 92.5 | 107 | 81.7 | 90.6 | 74.2 | 103 | 95.8 | 105 | 102 | 88.8 | 94.3 | 103 | 110 | 103 | 86.3 | 94.2 | 111 | 106 | 106 | 94 | 0 | 2.4 | 0 | 0.1 | 0
2 | CC(C)(C)Nc1nc(Nc2ccc(C(N)=O)cc2)cc(N)c1C#N [TC-Mps1-12] |  |  | 555 | > 10 | 93.6 | 96.6 | 94.8 | 95 | 62.9 | 94.9 | 101 | 102 | 95.9 | 72.1 | 104 | 102 | 101 | 98.2 | 61.7 | 91.7 | 89.8 | 88.4 | 66.2 | 39.5 | 97.5 | 103 | 104 | 109 | 100 | 2.6 | 1.8 | 2.1 | 8 | 0
3 | COc1ccc(C(=O)CC2(O)C(=O)Nc3c(Cl)ccc(Cl)c32)cc1 (stereo unspecified) [YK-4-279] | 2500 | 3.34 | 2470 | > 10 | 104 | 97.8 | 106 | 95.6 | 45.7 | 105 | 93.1 | 103 | 93.3 | 63.8 | 108 | 102 | 102 | 102 | 48.1 | 106 | 108 | 99.1 | 94.5 | 34.9 | 103 | 93.2 | 101 | 106 | 76.4 | 3.6 | 2.8 | 2.6 | 4.4 | 0.6
4 | S=C(NCc1ccc2c(c1)OCO2)N1CCN(c2ncnc3c2oc2ccccc23)CC1 [amuvatinib] |  |  | 1750 | > 10 | 104 | 96.6 | 100 | 95 | 65.1 | 95.2 | 90.6 | 97.1 | 84.5 | 68.3 | 102 | 104 | 97.9 | 90.4 | 67.6 | 100 | 101 | 96.2 | 84 | 19 | 98.4 | 92.7 | 101 | 94.1 | 78.7 | 2.5 | 2.8 | 2.8 | 7.1 | 1.4
5 | CCOC(=O)Nc1cc(-c2ccc(C)c(NS(C)(=O)=O)c2)nn2c(C)nnc12 [bromosporine] | 1570 | 1.05 | 1020 | 0.624 | 96.2 | 99.2 | 91.5 | 79.2 | 18.5 | 95.5 | 101 | 104 | 81.3 | 55.8 | 95.7 | 101 | 94.7 | 55.5 | 6.3 | 101 | 98.9 | 102 | 60.8 | 19.5 | 96.8 | 88 | 80.4 | 76.3 | 37.8 | 7.6 | 4.8 | 10.4 | 9.4 | 7.9
6 | CCCCN(CCCC)CCCOC(=O)c1ccc(N)cc1 [butacaine] | > 10000 | > 10 | > 10000 | > 10 | 92.5 | 99.3 | 95.1 | 102 | 101 | 92.7 | 98.5 | 91.3 | 128 | 65.7 | 102 | 90.8 | 99.1 | 92.9 | 92.7 | 108 | 93 | 102 | 85.2 | 95.7 | 95.9 | 95.3 | 106 | 86.8 | 94.9 | 0 | 0.9 | 0 | 0 | 0
7 | CN1CCN(C(c2ccccc2)c2ccc(Cl)cc2)CC1 (stereo unspecified) [chlorcyclizine] | > 10000 | > 10 | > 10000 | > 10 | 93.8 | 103 | 99 | 106 | 88.8 | 107 | 104 | 79.4 | 105 | 71.7 | 105 | 97.3 | 103 | 101 | 92.6 | 97.6 | 90.4 | 95.8 | 91.7 | 87.9 | 102 | 103 | 96.4 | 98.3 | 88.1 | 0 | 0.9 | 0 | 0 | 0.1
8 | O=C(O)c1cc(-c2ccccc2)nc2ccccc12 [cinchophen] |  |  |  |  |  |  |  |  |  |  |  |  |  |  |  |  |  |  |  |  |  |  |  |  |  |  |  |  |  | 0 |  | 0 | 0.2 | 0
9 | Cc1cc(-c2ccc(/N=N/c3ccc4c(S(=O)(=O)O)cc(S(=O)(=O)O)c(N)c4c3O)c(C)c2)ccc1/N=N/c1ccc2c(S(=O)(=O)O)cc(S(=O)(=O)O)c(N)c2c1O [evans-blue] |  | 1.92 |  |  | 99 | 98.6 | 95.1 | 86.3 | 53.7 | 96.7 | 88.9 | 104 | 97.9 | 51.1 | 103 | 106 | 94 | 91.6 | 47.9 | 102 | 89.6 | 84.2 | 86.5 | 52.6 | 92.8 | 101 | 105 | 102 | 71.9 | 4.2 | 2.8 | 4.2 | 4.9 | 1
10 | O=C(O)CCC(=O)c1ccc(-c2ccccc2)cc1 [fenbufen] |  |  |  |  |  |  |  |  |  |  |  |  |  |  |  |  |  |  |  |  |  |  |  |  |  |  |  |  |  | 0 |  | 0 | 0 | 0
11 | Cc1cccc(C(=O)O)c1O [hydroxytoluic-acid] | > 10000 | > 10 | > 10000 |  | 96.8 | 99.3 | 102 | 108 | 104 |  |  |  |  |  | 108 | 104 | 104 | 105 | 99 | 90.6 | 93.6 | 87.1 | 88.5 | 104 |  |  |  |  |  | 0 |  | 0 | 0 | 
12 | CC(=O)NC[C@H]1CN(c2ccc(N3CCOCC3)c(F)c2)C(=O)O1 [linezolid] |  |  |  |  |  |  |  |  |  |  |  |  |  |  |  |  |  |  |  |  |  |  |  |  |  |  |  |  |  | 0 |  | 0 | 0 | 
13 | CCNCCS(=O)(=O)NC[C@@]1(c2ccccc2)SC(NC(=O)C(C)(C)C)=NN1C(=O)C(C)(C)C [litronesib] | 48.8 | 0.146 | 11.9 | > 10 | 104 | 96 | 58 | 49.7 | 44.8 | 98.1 | 91 | 62.9 | 67.9 | 62.2 | 97 | 107 | 82.9 | 38.8 | 41.9 | 89.4 | 72.9 | 35.9 | 34.7 | 33.6 | 95.1 | 91.9 | 87 | 84.3 | 81.2 | 15.5 | 12.7 | 13.9 | 23.3 | 2.8
14 | COc1ccc(OC)c([C@@H](O)CNC(=O)CN)c1 [midodrine] | > 10000 | > 10 | > 10000 | > 10 | 99.1 | 104 | 100 | 106 | 105 |  |  |  |  |  | 102 | 97.8 | 106 | 95.8 | 108 | 109 | 102 | 118 | 99.1 | 109 | 89.1 | 98.7 | 95.7 | 95.6 | 98.3 | 0 |  | 0 | 0 | 0
15 | CO[C@@]12[C@H](COC(N)=O)C3=C(C(=O)C(C)=C(N)C3=O)N1C[C@@H]1N[C@@H]12 [mitomycin-C] |  |  |  |  |  |  |  |  |  |  |  |  |  |  |  |  |  |  |  |  |  |  |  |  |  |  |  |  |  | 2.6 |  | 5.5 | 16.7 | 2.6
16 | CC(C)(O)c1ccccc1CC[C@@H](SCC1(CC(=O)O)CC1)c1cccc(/C=C/c2ccc3ccc(Cl)cc3n2)c1 [montelukast] |  |  |  |  |  |  |  |  |  |  |  |  |  |  |  |  |  |  |  |  |  |  |  |  |  |  |  |  |  | 0 |  | 0 | 0 | 0
17 | CCCCN(Cc1ccc(C(=O)NO)cc1)C(=O)Nc1ccccc1 [nexturastat-A] | 1950 |  | 1830 |  | 98.1 | 102 | 99.3 | 90.1 | 36.6 | 101 | 98.8 | 109 | 92.3 | 52.3 | 96.2 | 94.5 | 96.7 | 99.4 | 56.6 | 110 | 105 | 97.7 | 90 | 43.9 | 89.3 | 107 | 98.9 | 88 | 51.7 | 5.1 | 3.8 | 2.3 | 4.7 | 4.4
18 | CCN(CC)CC#CCOC(=O)C(O)(c1ccccc1)C1CCCCC1 (stereo unspecified) [oxybutynin] |  |  |  |  |  |  |  |  |  |  |  |  |  |  |  |  |  |  |  |  |  |  |  |  |  |  |  |  |  | 0 |  | 0 | 0 | 0
19 | Cc1cc(-c2nc3cc(F)ccc3s2)ccc1NC(=O)[C@@H](N)CCCCN [phortress] | > 10000 | > 10 | 208 | > 10 | 97.9 | 93.9 | 97.5 | 95.2 | 93.6 | 100 | 100 | 93.3 | 92.2 | 73.5 | 92.3 | 95.8 | 94.4 | 97.2 | 107 | 95.6 | 107 | 86.3 | 3.3 | 1.6 | 102 | 99.9 | 97.6 | 91.3 | 79.9 | 0 | 1.6 | 0 | 20 | 1.1
20 | COc1cccc2c1c(O)c(C(=O)N(C)c1ccc(C(F)(F)F)cc1)c(=O)n2C [tasquinimod] |  | > 10 | > 10000 |  |  |  |  |  |  |  |  |  |  |  | 94.9 | 98.9 | 96.7 | 93 | 93.9 | 114 | 104 | 105 | 98.9 | 102 |  |  |  |  |  |  |  | 0 | 0 | 
